Assay results published in article PMC5843810, “18th European Symposium on Radiopharmacy and Radiopharmaceuticals” (EJNMMI Radiopharmacy and Chemistry, 2016).
Where two headings read alike, the source gives them in different places.

Experiments:
CSF-1R = target: T1, CSF-1R (Rattus norvegicus, UniProt Q00495); format: in vivo; settings: female rats
T1 construct: from tissue; host or cells: living female rats (brain)
T1 sequence (Q00495 20-978): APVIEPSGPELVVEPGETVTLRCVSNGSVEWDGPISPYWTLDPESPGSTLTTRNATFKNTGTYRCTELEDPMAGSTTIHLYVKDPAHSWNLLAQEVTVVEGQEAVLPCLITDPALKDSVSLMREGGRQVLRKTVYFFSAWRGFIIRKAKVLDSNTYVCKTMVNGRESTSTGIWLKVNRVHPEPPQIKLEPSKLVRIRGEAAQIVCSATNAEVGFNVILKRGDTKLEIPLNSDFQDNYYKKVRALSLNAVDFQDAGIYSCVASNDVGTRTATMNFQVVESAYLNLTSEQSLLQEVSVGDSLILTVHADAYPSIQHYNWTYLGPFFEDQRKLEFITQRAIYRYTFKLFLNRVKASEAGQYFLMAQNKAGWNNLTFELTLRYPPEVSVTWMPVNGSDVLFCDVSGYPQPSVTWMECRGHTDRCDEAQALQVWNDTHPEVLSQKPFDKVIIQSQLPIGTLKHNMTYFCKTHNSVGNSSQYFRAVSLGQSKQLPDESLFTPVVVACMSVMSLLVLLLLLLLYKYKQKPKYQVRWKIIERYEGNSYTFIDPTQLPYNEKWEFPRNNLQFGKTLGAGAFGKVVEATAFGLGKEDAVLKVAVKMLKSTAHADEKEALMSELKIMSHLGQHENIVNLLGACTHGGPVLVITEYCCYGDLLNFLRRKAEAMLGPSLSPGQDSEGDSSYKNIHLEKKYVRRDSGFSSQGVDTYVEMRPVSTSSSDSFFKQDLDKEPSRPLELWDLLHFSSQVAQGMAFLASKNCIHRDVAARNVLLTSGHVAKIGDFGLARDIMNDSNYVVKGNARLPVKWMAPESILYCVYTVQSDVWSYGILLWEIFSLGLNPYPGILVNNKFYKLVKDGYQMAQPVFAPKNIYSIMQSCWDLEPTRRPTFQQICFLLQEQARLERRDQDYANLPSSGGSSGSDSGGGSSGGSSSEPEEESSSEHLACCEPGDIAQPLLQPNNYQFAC
Excerpt: (§1) Materials and methods: All the chemicals and reagents used in the experiments were obtained from commercial sources and used without any further purification. Synthesis of 5-cyano-N-(4-(4-methylpiperazine-1-yl)-2-(4-methylpiperidin-1-yl)phenyl)furan-2-carboxamide and 5-cyano-N-(2-(4-methylpiperidine-1-yl)-4-(piperazine-1-yl)phenyl)furan-2-carboxamide molecules were done according to literature methods available with slight modifications for radiolabeling experiments^3. The [^11C]-methyl triflate reacts with the precursor in presence of a base at room temperature for 2 minutes gives the carbon-11 radiolabeled [^11C]BA-1 which was purified by using semi-preparative reversed-phase high pressure liquid chromatography (RP-HPLC). The peak corresponding the reference compound will be collected and checked for the purity using analytical RP-HPLC. Baseline biodistribution study was performed at 2, 10, 30 and 60 min. respectively. Blocking experiment (10 mg/kg cold compound) was performed at 30 min time point in healthy female adult mice n=3 and compared with vehicle treated batch. In vitro autoradiography experiments were carried on rat brain slices by incubating tracer and cold blocking solution. MicroPET imaging studies were performed on a Focus™ 220 microPET scanner with female rats.

[1] = format: in vivo; settings: healthy mice, 2 min
Excerpt: as §1

MCHR1 = MCHR1 (Rattus norvegicus, UniProt P97639); settings: rats, n=3
Description: Materials and methods: In vivo experiments were conducted in naïve male Sprague Dawley rats. For small-animal PET/CT/MR experiments, rats were anesthetized by isoflurane. 25min after [^18F]FE@SNAP iv injection (47.8±1MBq; SA: 19.7±6GBq/μmol), vehicle (baseline group, n=3) or 15mg/kg SNAP-7941 (blocking group, n=3) were administered through the tail vein. 75min after tracer injection, the rats were sacrificed. Radioactivity concentrations in brain were calculated and expressed as SUVs. In another set of experiments, [^18F]FE@SNAP (51.3±26MBq; SA: 36.1±28GBq/μmol) as well as vehicle (baseline group, n=3) or 15mg/kg SNAP-7941 (blocking group, n=3) were injected into conscious freely moving rats via a permanent catheter implanted into the jugular vein, thus excluding an influence of anaesthesia. 45min after tracer application, rats were sacrificed, the brain was removed and cut for ex vivo autoradiography. Subsequently, brain slices were put on Phosphor Imager plates for exposure and analyzed with a Cyclone Phosphor Imager the following day. Regions of interest (ROIs) were drawn for the hypothalamic region, the ventricle and a non-target region.

LNCaP cells = assay: Cellular internalization of radiofluorinated PSMA ligands; format: cell-based; settings: in vitro
Description: (§2) Materials and methods: The PSMA binding motif Glu-NH-CO-NH-Lys was synthesized by a well-established method (4) using solid phase chemistry and subsequently an amino acid linker was built up by fmoc-based solid phase peptide synthesis (SPPS). The non-radioactive reference compounds were also prepared analogically and eventually conjugated by 6-fluoronicotinic acid. After separation from the resin and deprotection the peptidomimetics were labeled using the TFP-ester of 6-[^18F]fluoronicotinic acid as prosthetic group. The Ki values of all compounds were determined by competitive binding assays on PSMA-positive LNCaP cells against ^68Ga-PSMA-10 (5) using the respective cold reference compounds. Additionally, the cellular internalization of the radiofluorinated ligands was determined.

PSMA = target: T2, PSMA (Homo sapiens, UniProt Q04609); assay: Competitive binding assay on PSMA-positive LNCaP cells against 68Ga-PSMA-10; settings: against 68Ga-PSMA-10, cold reference compounds
T2 construct: endogenous in cells; host or cells: LNCaP
Description: as §2

[2] = PET/CT imaging in nude mice bearing U87MG xenograft tumor; format: in vivo; settings: mouse, 90 min post injection
Description: Materials and methods: The PET imaging properties of [^68Ga]FSC(succ-RGD)3 were studied in nude mice bearing M21 human melanoma xenografts and human glioblastoma U87MG xenograft tumor. A parallel PET imaging of ^68GaNODAGA-RGD in same mouse bearing U87MG xenograft tumor was performed as a comparison.

in vivo = settings: C57BL/6, mouse, αvβ3-positive melanoma tumor, iv, total radioactivity
Description: Materials and methods: cRGDfK was functionalized with N3CH2COOH and N3PEG7COOH at ε-amino group of lysine. […] Biodistribution study of the two radiotracers was carried out in C57BL/6 mice bearing αvβ3-positive melanoma tumors. The radioactive preparation (~3.7 MBq/animal, 100 μL) was injected intravenously through the lateral tail vein. At different time intervals after injection (30, 60, and 180 min), the animals (n = 4/time point) were sacrificed and the relevant organs excised for measurement of retained activity.

[3] = CHI(IAM) non-specific binding measurement; format: physicochemical; settings: experimental non-specific binding measurement
Excerpt: Materials and methods: Similarly to the Ligand Efficiency (LE) index, we explored the usefulness of the Ligand Specific Efficiency index (LSE), which we defined as the ratio between affinity (expressed as e.g. pIC50 or pKd), and the logarithmic value of the experimental non-specific binding measurement, CHI(IAM).^[Jiang] LSE provides a measure of affinity, normalized to non-specific binding.

[4] = target: prostacyclin receptor (IPR) (Homo sapiens, UniProt P43119); assay: Affinity for prostacyclin receptor (IPR); format: binding
Description: This concept was applied to the development of a prostacyclin receptor (IPR) tracer.

[5] = system: U-87 MG and SKOV-3 tumours; settings: 1 h after injection
Description: The in vitro binding characteristics of FPyPEGCBT-c(RGDfK) were analysed by standard binding assay in U-87 MG and SKOV-3 cancer models and its selectivity towards integrins by siRNA depletions. Its preclinical potential was studied in mice bearing subcutaneous tumours by ex vivo biodistribution studies and in vivo microPET/CT imaging.

[6] = system: B16-F10 pulmonary metastatic melanoma; settings: NMRI mice, B16-F10 lung metastases, 1h-post injection PET, n=8
Description: (§3) Materials and methods: [^18F]MEL050 was synthesized using a one-step bromine-for-fluorine nucleophilic heteroaromatic substitution. Briefly, [^18F]MEL050 was prepared from a bromo-precursor, using no-carrier-added 18F-KF-Kryptofix 222 (dimethylformamide, 150°C, 6 min), followed by preparative HPLC purification (C18 column (300x7.8 mm, 7 μm), isocratic elution with acetonitrile/20 mM ammonium bicarbonate (20:80, v/v), 3.0 ml/min) and cartridge-reformulation (Sep-Pak® Plus C18 environmental) of the collected fraction. Radiochemical and chemical purity, stability and specific activity measurements were monitored using analytical HPLC. Chemical identity of the labeled compound [^18F]MEL050 was assessed by co-injection with non-radioactive standard MEL050. Experimental model of pulmonary metastatic melanoma was obtained by IV injection of B16-F10 cells in NMRI mice. Mice (n=8) were imaged 15 days after inoculation, using INVEON microPET/CT device (Siemens), after IV injection of 0.36±0.04MBq/g of [^18F]MEL050. Dynamic and static acquisitions were acquired from time of injection to 2h after tracer injection. The maximum percentage of [^18F]MEL050 Injected Dose per g of lung tissue (%ID/g Max) was determined using ROIs manually drawn on 1h-post injection PET images, and correlated to ex-vivo findings.

[7] = over 6 h, analytical HPLC
Description: as §3

Chain of MCHR1 (P97639 whole entry): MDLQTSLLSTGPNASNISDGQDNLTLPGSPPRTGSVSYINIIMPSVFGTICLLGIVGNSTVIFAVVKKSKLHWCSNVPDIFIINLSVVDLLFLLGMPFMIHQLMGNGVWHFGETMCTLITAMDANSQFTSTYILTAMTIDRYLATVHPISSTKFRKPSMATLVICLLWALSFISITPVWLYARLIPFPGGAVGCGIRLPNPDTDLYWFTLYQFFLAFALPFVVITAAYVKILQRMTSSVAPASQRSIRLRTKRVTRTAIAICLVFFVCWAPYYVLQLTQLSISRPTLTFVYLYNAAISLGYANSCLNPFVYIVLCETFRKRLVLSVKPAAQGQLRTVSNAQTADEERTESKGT
Chain of prostacyclin receptor (IPR) (P43119 whole entry, species assumed): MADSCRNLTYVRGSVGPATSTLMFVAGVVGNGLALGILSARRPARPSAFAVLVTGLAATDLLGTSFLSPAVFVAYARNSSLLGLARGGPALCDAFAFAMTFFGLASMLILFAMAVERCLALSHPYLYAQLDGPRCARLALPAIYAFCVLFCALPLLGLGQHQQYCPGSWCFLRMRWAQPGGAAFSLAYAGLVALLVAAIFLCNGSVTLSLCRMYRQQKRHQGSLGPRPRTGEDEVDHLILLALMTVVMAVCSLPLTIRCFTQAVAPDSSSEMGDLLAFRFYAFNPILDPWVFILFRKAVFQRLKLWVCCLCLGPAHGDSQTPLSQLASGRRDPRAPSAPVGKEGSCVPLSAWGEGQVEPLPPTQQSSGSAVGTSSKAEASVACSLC
T2 sequence (Q04609 whole entry): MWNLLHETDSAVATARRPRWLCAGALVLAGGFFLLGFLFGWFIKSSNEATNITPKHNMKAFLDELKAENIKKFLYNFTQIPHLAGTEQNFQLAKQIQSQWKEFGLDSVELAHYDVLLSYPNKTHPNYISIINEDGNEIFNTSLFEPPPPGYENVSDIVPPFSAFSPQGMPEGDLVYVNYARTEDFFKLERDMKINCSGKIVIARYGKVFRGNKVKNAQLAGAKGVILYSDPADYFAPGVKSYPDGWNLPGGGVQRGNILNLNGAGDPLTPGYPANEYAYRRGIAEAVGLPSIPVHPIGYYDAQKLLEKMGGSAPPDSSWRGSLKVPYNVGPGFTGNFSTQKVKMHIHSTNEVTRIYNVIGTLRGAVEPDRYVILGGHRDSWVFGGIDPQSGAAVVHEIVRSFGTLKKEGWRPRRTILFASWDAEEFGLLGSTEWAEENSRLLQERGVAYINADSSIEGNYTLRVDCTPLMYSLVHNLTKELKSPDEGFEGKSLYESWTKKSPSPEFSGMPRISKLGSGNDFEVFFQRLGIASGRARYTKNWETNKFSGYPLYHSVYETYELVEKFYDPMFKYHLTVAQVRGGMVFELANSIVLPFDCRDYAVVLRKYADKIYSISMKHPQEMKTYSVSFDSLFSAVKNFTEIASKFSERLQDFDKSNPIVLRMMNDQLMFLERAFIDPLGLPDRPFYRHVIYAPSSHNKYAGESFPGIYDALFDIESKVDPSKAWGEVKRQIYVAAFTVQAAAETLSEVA

CC1CCN(c2cc(N3CCN(C)CC3)ccc2NC(=O)c2ccc(C#N)o2)CC1 [[11C]-BA1, 5-cyano-N-(4-(4-methylpiperazine-1-yl)-2-(4-methylpiperidin-1-yl)phenyl)furan-2-carboxamide]
brain SUV, baseline (CSF-1R; baseline microPET): 1.2 SUV
brain SUV, with blocking (CSF-1R; blocking with cold compound): 2 SUV
lung uptake [1]: 14 % ID
tracer uptake into the brain [1]: 4 % ID

COCC1=C(C(=O)OCC[18F])C(c2ccc(F)c(F)c2)N(C(=O)NCCCN2CCC(c3cccc(NC(C)=O)c3)CC2)C(=O)N1 (stereo not drawn) [[18F]FE@SNAP]
SUV in the ventricular system, blocking group (MCHR1; 15mg/kg SNAP-7941 25min after tracer): 0.34±0.07 SUV
SUV in the ventricular system, baseline group (MCHR1; vehicle 25min after tracer): 0.73±0.11 SUV

PSMA-1007
internalization ratio (LNCaP cells): about 70%
Ki (PSMA): 6 nM

C/C1=C/C(=O)N(O)CCC[C@H](NC(=O)CCC(=O)NCCCC[C@@H]2NC(=O)[C@@H](Cc3ccccc3)NC(=O)[C@H](CC(=O)O)NC(=O)CNC(=O)[C@H](CCCNC(=N)N)NC2=O)C(=O)OCC/C(C)=C\C(=O)N(O)CCC[C@H](NC(=O)CCC(=O)NCCCC[C@@H]2NC(=O)[C@@H](Cc3ccccc3)NC(=O)[C@H](CC(=O)O)NC(=O)CNC(=O)[C@H](CCCNC(=N)N)NC2=O)C(=O)OCC/C(C)=C\C(=O)N(O)CCC[C@H](NC(=O)CCC(=O)NCCCC[C@@H]2NC(=O)[C@@H](Cc3ccccc3)NC(=O)[C@H](CC(=O)O)NC(=O)CNC(=O)[C@H](CCCNC(=N)N)NC2=O)C(=O)OCC1 [[68Ga]FSC(succ-RGD)3, metal not drawn]
tissue to tissue ratio at […] ([2]; tumour and kidneys, read-out: tumor/kidneys ratio): 1.3
tissue to tissue ratio at […] ([2]; tumour and muscle, read-out: tumor/muscle ratio): 4.9

N=C(N)NCCC[C@@H]1NC(=O)[C@H](CCCCNC(=O)CCOCCOCCOCCOCCOCCOCCOCCn2cc(C[C@H](N)C(=O)O)nn2)NC(=O)[C@@H](Cc2ccccc2)NC(=O)[C@H](CC(=O)O)NC(=O)CNC1=O [99mTc(CO)3-Pra-Tz-PEG7-cRGDfK, metal not drawn]
tissue uptake at 0.5 h (in vivo): 4.11 ± 0.51 %ID/g

CC(C)Oc1ccc(Cc2ccc(NC3=NCCN3)cc2)cc1.Cl [Ro1138452]
CHI(IAM) [3]: 58
Ki [4]: 0.23 nM

[18F]FPyPEGCBT-c(RGDfK) (head to tail)
tumour uptake, SKOV-3 [5]: 2.4 %ID/g
tumour uptake, U-87 MG [5]: 2.9 %ID/g

N=C(N)NCCC[C@@H]1NC(=O)[C@H](CCCCNC(=O)Cn2cc(C[C@H](N)C(=O)O)nn2)NC(=O)[C@@H](Cc2ccccc2)NC(=O)[C@H](CC(=O)O)NC(=O)CNC1=O [99mTc(CO)3-Pra-Tz-CH2-cRGDfK, metal not drawn]
tissue uptake at 0.5 h (in vivo): 3.01 ± 0.77 %ID/g

CCN(CC)CCNC(=O)c1ccc([18F])nc1 [[18F]MEL050]
%ID/g Max in lung tumours [6]: 4.7±2.6%
product stability (RCP) [7]: > 98%
